The source of these data is patent US20260242320A1, “USE OF CANNABIDIOL DERIVATIVE IN PREPARATION OF MEDICAMENT” (priority 2023, published 2026).

Assay [1] relates to LPS-induced proinflammatory factor nitric oxide (NO) in immunocompetent BV-2 cells. Description: NO assay: inhibition of LPS-induced NO overproduction in BV-2 cells. Type of assay: cell-based. The settings on record: Mus musculus, BV-2, 24 h, read-out: Antineuroinflammatory activity (IC50 inhibiting LPS-induced NO). The protocol:
BV-2 cells were seeded at a density of 5×10^4 cells per milliliter in 96-well plates. After 24 h incubation, the media was removed and changed to DMEM without FBS and penicillin-streptomycin. LPS (200 ng/mL) and different concentrations of compounds were added. After 24 h treatment, 100 μL of media was transferred to flat black 96-well micro fluor plates, and then, 10 μL of 0.05 mg/mL 2,3-diaminonaphthalene was added and incubated in the dark for 15 min. 5 μL of NaOH (3 M) was subsequently added to each well to quench the reaction. NO inhibition ratio was analyzed by a SYNERGY H1 Microplate Reader (BioTek Instruments, Carlsbad, CA, USA) with excitation at 360 nm and emission at 430 nm. The fluorescence value of the LPS-treated group was set as 100%.

The subject of the next assay is BV-2 cellular viability. Kind of assay: Cell viability / cytotoxicity by crystal violet staining. The settings on record: Mus musculus, BV-2, read-out: Cellular toxicity (IC50 inhibiting BV-2 cellular viability). Type of assay: cell-based. The protocol: 100 μL of culture medium were transferred to a black 96-well plate for later use. Following removal of old culture medium, 100 μL of 4% paraformaldehyde was added for fixation. Fixation was performed for 5 minutes. Paraformaldehyde was then removed, and 100 μL of 0.05% crystal violet was added. The resultant mixture was incubated for 15 minutes, after which time crystal violet was removed and the mixture was slowly rinsed with water three times. Next, 150 μL of ethanol was added, and the mixture was incubated for 15 minutes. After incubation, the absorbance was measured at 540 nm using a spectrophotometer. Viability (%)=100× Fluorescence values of the dosing group/Fluorescence values of the blank group.
Cell viability was determined by crystal violet staining. Briefly, BV-2 cells were treated as indicated in the NO assay. The media was removed, and then 4% paraformaldehyde was added to fix the cells for 5 min. Cells were stained with 100 μL 0.05% crystal violet for 15 min and washed with water 2 times. Next, 150 μL of ethanol was added to each well, and the plate was incubated for 15 min at room temperature. Absorbance at 540 nm was measured using a SYNERGY H1 Microplate Reader.

A word on the IC50: it is the concentration that gives 50% inhibition. As for `C=C(C)[C@@H]1CCC(C)=C[C@H]1c1c(O)cc(CC)cc1O` [Compound 12a, (1′R,2′R)-4-Ethyl-5′-methyl-2′-(prop-1-en-2-yl)-1′,2′,3′,4′-tetra-hydro-[1,1′-biphenyl]-2,6-diol], the values for the IC50 (in assay [1]; in the assay with BV-2 cellular viability) were 2.5 ± 0.3 µM and 22.6 ± 1.6 µM, respectively.
The matching figures for `C#CCOc1cc(CCCCC)cc(O)c1[C@@H]1C=C(C)CC[C@H]1C(=C)C` [Compound 5a, (1′R,2′R)-5′-Methyl-4-pentyl-2′-(prop-1-en-2-yl)-6-(prop-2-yn-1-yloxy)-1′,2′,3′,4′-tetrahydro-[1,1′-biphenyl]-2-ol]: 99.6 ± 16.3 µM and 65 ± 7.9 µM.
The matching figures for `C=C(C)[C@@H]1CCC(C)=C[C@H]1c1c(O)cc(CCCCC)cc1OCC` [Compound 2a, (1′ R,2′R)-6-Ethoxy-5′-methyl-4-pentyl-2′-(prop-1-en-2-yl)-1′,2′,3′,4′-tetrahydro-[1,1′-biphenyl]-2-ol]: 167 ± 16.9 µM and 176 ± 7.4 µM.
The matching figures for `C=C(C)[C@@H]1CCC(C)=C[C@H]1c1c(O)cc(CCCCCCCC)cc1O` [Compound 12g, (1′R,2′R)-5′-Methyl-4-octyl-2′-(prop-1-en-2-yl)-1′,2′,3′,4′-tetra-hydro-[1,1′-biphenyl]-2,6-diol]: 174 ± 33 µM and 26.2 ± 5.2 µM.
Take `C=C(C)[C@@H]1CCC(C)=C[C@H]1c1c(O)cc(CCCCCCCCCCCC)cc1O` [Compound 12h, (1′R,2′R)-4-Dodecyl-5′-methyl-2′-(prop-1-en-2-yl)-1′,2′,3′,4′-tet-rahydro-[1,1′-biphenyl]-2,6-diol]: the IC50 (in assay [1]; in the assay on BV-2 cellular viability) was greater than 200 µM in each case.
Consider `C#CCOc1cc(CCCCC)cc(OCC#C)c1[C@@H]1C=C(C)CC[C@H]1C(=C)C` [Compound 5b, (1R,2R)-5-Methyl-4′-pentyl-2-(prop-1-en-2-yl)-2′,6′-bis(prop-2-yn-1-yloxy)-1,2,3,4-tetrahydro-1,1′-biphenyl], for which the concentration for half-maximal inhibition (IC50) (in assay [1]; in the assay on BV-2 cellular viability) was greater than 200 µM each time.
`C=C(C)[C@@H]1CCC(C)=C[C@H]1c1c(O)cc(C(C)n2ccnc2)cc1O` (stereo partly drawn) [Compound 19c, (1′R,2′R)-4-(1-(1H-Imidazole-1-yl)ethyl)-5′-methyl-2′-(prop-1-en-2-yl)-1′,2′,3′,4′-tetrahydro-[1,1′-biphenyl]-2,6-diol]: the IC50 amounted to 4.4 ± 0.5 µM in assay [1] and 32.6 ± 3.2 µM in the assay on BV-2 cellular viability.
`C=C(C)[C@@H]1CCC(C)=C[C@H]1c1c(OCCC)cc(CCCCC)cc1OCCC` [Compound 3b, (1R,2R)-5-Meth-yl-4′-pentyl-2-(prop-1-en-2-yl)-2′,6′-dipropoxy-1,2,3,4-tetrahydro-1,1′-biphenyl]: the 50% inhibitory concentration (IC50) (in assay [1]; in the assay on BV-2 cellular viability) was greater than 200 µM in each case.
In the case of `C=C(C)[C@@H]1CCC(C)=C[C@H]1c1c(OC)cc(CCCCC)cc1OC` [Compound 1b, (1R,2R)-2′,6′-Dimethoxy-5-methyl-4′-pentyl-2-(prop-1-en-2-yl)-1,2,3,4-tetrahydro-1,1′-biphenyl], the IC50 (in assay [1]; in the assay with BV-2 cellular viability) was greater than 200 µM throughout.
As for `C=C(C)[C@@H]1CCC(C)=C[C@H]1c1c(O)cc(CCCC)cc1O` [Compound 12c], the 50% inhibitory concentration (IC50) came out at 5 ± 3.5 µM in assay [1] and 11.1 ± 2.8 µM in the assay with BV-2 cellular viability.
Take `C=CCOc1cc(CCCCC)cc(OCC=C)c1[C@@H]1C=C(C)CC[C@H]1C(=C)C` [Compound 4b, (1R,2R)-2′,6′-Bis(allyloxy)-5-methyl-4′-pentyl-2-(prop-1-en-2-yl)-1,2,3,4-tetrahy-dro-1,1′-biphenyl]: the half-maximal inhibitory concentration (IC50) (in assay [1]; in the assay with BV-2 cellular viability) was greater than 200 µM each time.
Consider `C=C(C)[C@@H]1CCC(C)=C[C@H]1c1c(O)cc(CCCCCC)cc1O` [Compound 12e, (1′R,2′R)-4-Hexyl-5′-methyl-2′-(prop-1-en-2-yl)-1′,2′,3′,4′-tetra-hydro-[1,1′-biphenyl]-2,6-diol], for which the IC50 in assay [1] was 2.1 ± 0.4 µM; in the assay with BV-2 cellular viability, 19 ± 0.5 µM.
The matching figures for `C=C(C)[C@@H]1CCC(C)=C[C@H]1c1c(OCC)cc(CCCCC)cc1OCC` [Compound 2b, (1R,2R)-2′,6′-Diethoxy-5-methyl-4′-pentyl-2-(prop-1-en-2-yl)-1,2,3,4-tetrahydro-1,1′-biphenyl]: greater than 200 µM and greater than 200 µM.
